US20140296149A1, “Compositions and Methods for the Treatment of Cardiac Surgery-Associated Acute Kidney Injury with Annexin A1 Peptide” (priority 2010, published 2014)
No end group written: not given here.

Tests used:
[1] = system: splanchnic artery occlusion and reperfusion injury; conditions: by affecting neutrophil migration; cited from earlier work
[2] = system: experimental myocardial ischemia-reperfusion; conditions: by attenuating neutrophil migration; cited from earlier work
[3] = system: rat model of CPB/DHCA; test: Preclinical rat model of CPB/DHCA, cardiac-surgery associated AKI (Example I, i.p.); assay type: in vivo
Procedure: FIGS. 1A-B. ANXA1 short peptide (ANXA1sp) treatment ameliorates proximal tubular apoptosis and inhibits the activity of caspase-3 induced by ischemia-reperfusion injury following deep hypothermia circulatory arrest (DHCA). Quantification of apoptosis was determined by terminal deoxynucleotidyl transferase dUTP nick end labeling (TUNEL) staining (A) and the activity of caspase-3 analyzed by Western blot (B) at 24 h after DHCA in rats either treated with ANXA1sp or 0.1% DMSO (vehicle) i.p. Results are shown as mean±SD of six animals in each group. *p<0.002.
FIGS. 2A-B. Effect of treatment of ANXA1sp after ischemia-reperfusion injury on cell apoptosis and cell proliferation. (A) Treatment with ANXA1sp inhibits apoptosis (TUNEL staining) and enhances proliferation (PCNA staining) induced by ischemia-reperfusion injury following deep hypothermia circulatory arrest (DHCA). Representative sections from 24 hrs after DHCA in rats treated with either ANXA1sp or 0.1% DMSO (vehicle) (original magnification 300×). (B) ANXA1sp tilts the balance of proximal tubular cell fate toward survival after ischemia-reperfusion injury. A ratio of proliferation/apoptosis (TUNEL) was calculated in proximal tubules 24 hrs after DHCA in rats treated with either ANXA1sp or 0.1% DMSO (vehicle). Results were shown as mean±SD of six rats in each group. *p<0.005 versus vehicle.
FIGS. 3A-C. (A) Protein levels of neutrophil gelatinase associated lipocalin (NGAL) analyzed by Western blot in the kidney 24 hrs after reperfusion following cardiopulmonary bypass (CPB) and deep hypothermic circulatory arrest (DHCA) in vehicle treated animals (Vehicle) versus ANXA1sp treated animals (ANXA1sp). Results are shown as mean±SD. (n=6). *p<0.01 vs. Vehicle. (B) Effect of ANXA1sp on renal NGAL protein levels. Results are representative of six independent experiments in each group. (C) The location of NGAL protein detected by immunohistochemistry in the kidney 24 hrs after reperfusion following DHCA in vehicle treated animals (Vehicle) versus ANXA1sp treated animals (ANXA1sp). NGAL protein was visualized with the NGAL antibody. NGAL positive staining was abundant in ANXA1sp treated animals and mainly located in the proximal tubule cells (red color) (original magnification 200×).
FIG. 4. ANXA1sp treatment represses the renal levels of TNF-α induced by ischemia-reperfusion injury following deep hypothermia circulatory arrest (DHCA) analyzed by ELISA in the kidney 24 hrs after reperfusion in rats either treated with ANXA1sp (open bar, n=6) or vehicle (0.1% DMSO) i.p. (filled bar, n=6). Results are expressed as mean value±SD; *p<0.05 vs. Vehicle.
(§1) NGAL positive staining was abundant in ANXA1sp treated animals and mainly located in the proximal tubule cells (FIG. 3C).

[4] = system: rat model of CPB/CA; test: Early renal biomarker GST-μ in rat urine, preclinical model of CPB/CA; assay type: in vivo; conditions: setting of myocardial ischemia/reperfusion, n=3, vs vehicle
Description: FIG. 5. […] Values presented are means±SD; n=3; *p<0.05 vs. Vehicle.
as §1

[5] = system: Male Sprague-Dawley rats, CPB/DHCA; test: Rat CPB/DHCA, ANXA1sp 2 mg/kg i.v. (Example II); assay type: in vivo
Procedure: Male Sprague-Dawley rats were prepared for 60 min of DHCA at 18° C. and received either vehicle or ANXA1 sp (2 mg/kg) i.v. at one hour before CPB and one hour after reperfusion. Renal tissue and serum samples were harvested at 3 (n=5), 6 (n=3), and 24 hours (n=3) i.v. after CPB/DHCA. The time course of renal activity of NF-kappa B was determined by a rat specific ELISA kit. Changes of renal and serum levels of the proinflammatory cytokines tumor necrosis factor-alpha (TNF-α) and interleukin (IL)-6 as well as myeloperoxidase (MPO) were measured by ELISA. Changes of renal levels of activated caspase-3 were determined by Western blot. At 24 hours after DHCA, apoptotic proximal tubular cells was identified by TUNEL and quantified by counting the numbers of apoptotic proximal tubular cells in 5 representative renal areas.

[6] = system: myocardial ischemia-reperfusion; conditions: several in vitro and in vivo preclinical models; cited from earlier work
[7] = system: myocardial I/R injury; conditions: cited from earlier work
[8] = 6 and 24 h after DHCA, vs vehicle

## Ac-Ala-Met-Val-Ser-Glu-Phe-Leu-Lys-Gln-Ala-Trp Phe-Ile-Glu-Asn-Glu-Glu-Gln-Glu-Tyr-Val-Gln-Thr-Val-Lys (Ac-AMVSEFLKQAWFIENEEQEYVQTVK) [Ac2-26]
[1]
  protection against splanchnic artery occlusion and reperfusion injury: protects
[2]
  protection against experimental myocardial ischemia-reperfusion: protects

## Ac-Gln-Ala-Trp [ANXA1sp]
[3]; 24 h after DHCA, i.p., vs vehicle, n=6
  numbers of proximal tubular cells (apoptosis, TUNEL staining): reduced numbers
[3]; 24 hrs after DHCA, vs vehicle
  tubule cell proliferation (PCNA staining): enhanced
[3]; 24 hrs after reperfusion following CPB and DHCA, vs vehicle
  expression of NGAL in the kidney (Western blot): significantly higher expression
[3]; 24 hrs after reperfusion, i.p., vs vehicle
  levels of TNF-α protein in the kidney (ELISA): significantly lower levels
[3]; kidney, 24 h after DHCA, i.p., vs vehicle
  activity of caspase-3 (Western blot): lower activity
[3]; kidney, 24 hrs after reperfusion, mainly located in proximal tubule cells
  NGAL positive staining (immunohistochemistry): abundant
[3]; proximal tubules, 24 hrs after DHCA, vs vehicle
  balance of proximal tubular cell fate (ratio of proliferation/apoptosis): tilted the balance of proximal tubular cell fate toward survival
[3]; rat CPB/DHCA, vs vehicle (0.1% DMSO)
  cardiac-surgery associated acute kidney injury (AKI): significantly attenuates
[4]
  expression of GST-μ in rat urine: significantly reduced expression
[5]
  AKI following CPB/DHCA: attenuates
[5]; 3 and 6 hours after DHCA, vs vehicle
  renal activity of NF-kappa B (ELISA): significant inhibition
[5]; [8]
  renal levels of IL-6 (ELISA): significantly suppressed
  renal levels of MPO (ELISA): significantly suppressed
[5]; 24 h after DHCA, vs vehicle
  numbers of apoptotic proximal tubular cells (TUNEL): reduced numbers
[5]; 24 hours after DHCA, vs vehicle
  renal levels of TNF-α (ELISA): significantly suppressed
[5]; different time points after DHCA, vs vehicle
  renal activity of caspase-3 (Western blot): significantly decreased
[5]; vs vehicle, data not shown
  release of IL-6 in the serum: significantly reduced release
  release of MPO in the serum: significantly reduced release
  release of TNF-α in the serum: significantly reduced release
[6]
  cardioprotective efficacy: robust cardioprotective efficacy

B1: ANXA1: 37 kDa protein, member of the annexin superfamily; about 346 amino acids (SEQ ID NO:2) (protein, listed as Homo sapiens)
chain: MAMVSEFLKQAWFIENEEQEYVQTVKSSKGGPGSAVSPYPTFNPSSDVAALHKAIMVKGVDEATIIDILTKRNNAQRQQIKAAYLQETGKPLDETLKKALTGHLEEVVLALLKTPAQFDADELRAAMKGLGTDEDTLIEILASRTNKEIRDINRVYREELKRDLAKDITSDTSGDFRNALLSLAKGDRSEDFGVNEDLADSDARALYEAGERRKGTDVNVFNTILTTRSYPQLRRVFQKYTKYSKHDMNKVLDLELKGDIEKCLTAIVKCATSKPAFFAEKLHQAMKGVGTRHKALIRIMVSRSEIDMNDIKAFYQKMYGISLCQAILDETKGDYEKILVALCGGN
[7]; myocardial I/R injury
  leukocyte-dependent myocardial damage: reduces
[7]; rats treated with ANXA1
  numbers of extravasated leukocytes: significantly lower numbers
